Calls of active or inactive are those of the source. The calls are words filed in the database; no cut-off is given here.
Experiments:
[1] = test system: Trachea; test: Inhibition of Ach-induced contraction in Sprague-Dawley rat trachea at 1 to 100 umol/L; assay type: functional, tissue-based; conditions: read-out: pA2 (converted)
[2] = test system: Trachea; test: Inhibition of Ach-induced contraction in Sprague-Dawley rat trachea at 100 umol/L; assay type: functional, tissue-based
[3] = test system: Trachea; test: Inhibition of Ach-induced contraction in Sprague-Dawley rat trachea; assay type: functional, tissue-based
[4] = test system: Trachea; test: Inhibition of KCl-induced contraction in Sprague-Dawley rat trachea assessed as maximal diastolic rate at 10^-8 mol/L (reference value: 7 +/- 0.3%); assay type: functional; design: scale not given: the % may be the effect or the level left
[5] = test system: Trachea; test: Inhibition of KCl-induced contraction in Sprague-Dawley rat trachea assessed as maximal diastolic rate at 10^-9 mol/L (reference value: 5.9 +/- 1.8%); assay type: functional; design: scale not given: the % may be the effect or the level left
[6] = test system: Trachea; test: Inhibition of KCl-induced contraction in Sprague-Dawley rat trachea assessed as maximal diastolic rate at 10^-7 mol/L (reference value: 7 +/- 0.8%); assay type: functional; design: scale not given: the % may be the effect or the level left
[7] = test system: Trachea; test: Inhibition of KCl-induced contraction in Sprague-Dawley rat trachea assessed as maximal diastolic rate at 10^-6 mol/L (reference value: 6 +/- 1.2%); assay type: functional; design: scale not given: the % may be the effect or the level left
[8] = test system: Trachea; test: Inhibition of KCl-induced contraction in Sprague-Dawley rat trachea assessed as maximal diastolic rate at 10^-5 mol/L (reference value: 6 +/- 0.6%); assay type: functional; design: scale not given: the % may be the effect or the level left
[9] = test system: Trachea; test: Inhibition of KCl-induced contraction in Sprague-Dawley rat trachea assessed as maximal diastolic rate at 10^-4 mol/L (reference value: 6.6 +/- 0.3%); assay type: functional; design: scale not given: the % may be the effect or the level left
[10] = test system: Trachea; test: Inhibition of Ach-induced contraction in Sprague-Dawley rat trachea assessed as maximal diastolic rate at 10^-9 mol/L (reference value: 12.7 +/- 2.8%); assay type: functional; design: scale not given: the % may be the effect or the level left
[11] = test system: Trachea; test: Inhibition of Ach-induced contraction in Sprague-Dawley rat trachea assessed as maximal diastolic rate at 10^-8 mol/L (reference value: 14 +/- 1.8%); assay type: functional; design: scale not given: the % may be the effect or the level left
[12] = test system: Trachea; test: Inhibition of Ach-induced contraction in Sprague-Dawley rat trachea assessed as maximal diastolic rate at 10^-7 mol/L (reference value: 14.2 +/- 2.3%); assay type: functional; design: scale not given: the % may be the effect or the level left
[13] = test system: Trachea; test: Inhibition of Ach-induced contraction in Sprague-Dawley rat trachea assessed as maximal diastolic rate at 10^-6 mol/L (reference value: 15.9 +/- 3%); assay type: functional; design: scale not given: the % may be the effect or the level left
[14] = test system: Trachea; test: Inhibition of Ach-induced contraction in Sprague-Dawley rat trachea assessed as maximal diastolic rate at 10^-5 mol/L (reference value: 15.9 +/- 2.6%); assay type: functional; design: scale not given: the % may be the effect or the level left
[15] = test system: Trachea; test: Inhibition of Ach-induced contraction in Sprague-Dawley rat trachea assessed as maximal diastolic rate at 10^-4 mol/L (reference value: 15 +/- 4.2%); assay type: functional; design: scale not given: the % may be the effect or the level left
[16] = test system: Trachea; test: Inhibition of Ach-induced contraction in Sprague-Dawley rat trachea assessed as tracheal tension at 10^-9 mol/L (reference value: 0.63 to 0.98g); assay type: functional
[17] = test system: Trachea; test: Inhibition of Ach-induced contraction in Sprague-Dawley rat trachea assessed as tracheal tension at 10^-8 mol/L (reference value: 0.63 to 0.98 g); assay type: functional
[18] = test system: Trachea; test: Inhibition of Ach-induced contraction in Sprague-Dawley rat trachea assessed as tracheal tension at 10^-7 mol/L (reference value: 0.63 to 0.98 g); assay type: functional
[19] = test system: Trachea; test: Inhibition of Ach-induced contraction in Sprague-Dawley rat trachea assessed as tracheal tension at 10^-6 mol/L (reference value: 0.63 to 0.98 g); assay type: functional
[20] = test system: Trachea; test: Inhibition of Ach-induced contraction in Sprague-Dawley rat trachea assessed as tracheal tension at 10^-5 mol/L (reference value: 0.63 to 0.98 g); assay type: functional
[21] = test system: Trachea; test: Inhibition of Ach-induced contraction in Sprague-Dawley rat trachea assessed as tracheal tension at 10^-4 mol/L (reference value: 0.63 to 0.98 g); assay type: functional
[22] = test system: Trachea; test: Inhibition of KCl-induced contraction in Sprague-Dawley rat trachea assessed as tracheal tension at 10^-9 mol/L (reference value: 2.16 to 2.59 g); assay type: functional
[23] = test system: Trachea; test: Inhibition of KCl-induced contraction in Sprague-Dawley rat trachea assessed as tracheal tension at 10^-8 mol/L (reference value: 2.16 to 2.59 g); assay type: functional
[24] = test system: Trachea; test: Inhibition of KCl-induced contraction in Sprague-Dawley rat trachea assessed as tracheal tension at 10^-7 mol/L (reference value: 2.16 to 2.59 g); assay type: functional
[25] = test system: Trachea; test: Inhibition of KCl-induced contraction in Sprague-Dawley rat trachea assessed as tracheal tension at 10^-6 mol/L (reference value: 2.16 to 2.59 g); assay type: functional
[26] = test system: Trachea; test: Inhibition of KCl-induced contraction in Sprague-Dawley rat trachea assessed as tracheal tension at 10^-5 mol/L (reference value: 2.16 to 2.59 g); assay type: functional
[27] = test system: Trachea; test: Inhibition of KCl-induced contraction in Sprague-Dawley rat trachea assessed as tracheal tension at 10^-4 mol/L (reference value: 2.16 to 2.59 g); assay type: functional

Q: With `C[C@@H]1CC[C@H]2N(C1)C[C@H]1[C@@H]3C[C@H]4[C@@H](CC(=O)[C@H]5C[C@@H](O)CC[C@@]54C)[C@@H]3CC[C@@H]1[C@]2(C)O` as the compound, how does the Kb [1] read?
A: Its Kb is 646 nM.

Q: And the inhibition [2]?
A: Its inhibition is “Active”.

Q: And the EC50 [3]?
A: Its EC50 is 650 nM.

Q: And the Activity [4]?
A: Its Activity is 5.2%.

Q: And the Activity [5]?
A: The Activity was 6.2%.

Q: And the Activity [6]?
A: Its Activity is 3.2%.

Q: What about the Activity [7] of the same compound?
A: Its Activity is 3.6%.

Q: And the Activity [8]?
A: Its Activity is 3.3%.

Q: And the Activity [9]?
A: The Activity was 3.6%.

Q: What about the Activity [10] of the same compound?
A: Its Activity is 15.8%.

Q: What about the Activity [11] of the same compound?
A: Its Activity is 20.6%.

Q: And the Activity [12]?
A: Its Activity is 27.5%.

Q: And the Activity [13]?
A: The Activity was 30.4%.

Q: And the Activity [14]?
A: The Activity was 34.3%.

Q: And the Activity [15]?
A: The Activity was 39.3%.

Q: What about the Activity [16] of the same compound?
A: Its Activity is 0.54 g.

Q: What about the Activity [17] of the same compound?
A: Its Activity is 0.51 g.

Q: And the Activity [18]?
A: Its Activity is 0.48 g.

Q: And the Activity [19]?
A: The Activity was 0.46 g.

Q: And the Activity [20]?
A: Its Activity is 0.43 g.

Q: What about the Activity [21] of the same compound?
A: The Activity was 0.38 g.

Q: And the Activity [22]?
A: Its Activity is 2.43 g.

Q: What about the Activity [23] of the same compound?
A: The Activity was 2.46 g.

Q: What about the Activity [24] of the same compound?
A: The Activity was 2.49 g.

Q: What about the Activity [25] of the same compound?
A: The Activity was 2.48 g.

Q: And the Activity [26]?
A: Its Activity is 2.49 g.

Q: And the Activity [27]?
A: The Activity was 2.48 g.

Source: ChEMBL document CHEMBL3785034, “New isosteroidal alkaloids with tracheal relaxant effect from the bulbs of Fritillaria pallidiflora Schrenk” (Bioorg Med Chem Lett, 2016)
